According to patent US20050148763A1, “Peg-binding pth or peg-binding pth derivative” (Chugai Seiyaku Kabushiki Kaisha, priority 2002, published 2005):

What was measured:
rat PTH1 receptors = molecular target: T1, rat PTH1 receptors (Rattus norvegicus, UniProt P25961); test: in vitro ability to produce cAMP, EW29 cells; type: cell-based; conditions: Table 2(3), n=2-3
T1 construct: expressed in transfected cells; host or cells: EW29 cells
T1 sequence (P25961 27-591): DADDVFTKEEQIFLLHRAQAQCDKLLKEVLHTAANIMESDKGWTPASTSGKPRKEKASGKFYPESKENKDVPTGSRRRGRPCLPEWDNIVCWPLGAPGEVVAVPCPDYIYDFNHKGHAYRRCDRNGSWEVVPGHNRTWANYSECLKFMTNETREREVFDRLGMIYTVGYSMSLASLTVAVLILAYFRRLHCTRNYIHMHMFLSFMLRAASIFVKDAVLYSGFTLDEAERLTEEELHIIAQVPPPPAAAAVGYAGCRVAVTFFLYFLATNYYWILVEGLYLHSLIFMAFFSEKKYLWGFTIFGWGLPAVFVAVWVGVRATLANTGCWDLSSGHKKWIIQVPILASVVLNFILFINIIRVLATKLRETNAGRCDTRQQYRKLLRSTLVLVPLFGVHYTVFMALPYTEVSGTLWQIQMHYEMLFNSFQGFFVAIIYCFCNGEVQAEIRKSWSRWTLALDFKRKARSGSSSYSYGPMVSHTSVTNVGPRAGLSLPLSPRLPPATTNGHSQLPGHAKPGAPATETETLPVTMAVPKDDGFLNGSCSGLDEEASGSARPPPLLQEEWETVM
Description: Each PEG-PTH sample was assayed for its ability to produce cAMP (indicative of the increasing effect of PTH on bone mass) as follows. […] These cells were seeded in 96-well plates at 1×10^5 cells/well and incubated overnight. […] After removing the reaction solution, the plates were placed on powdered dry ice to freeze the cells and then removed from the dry ice. The cells were thawed with 50 μL of 50 mM HCl and frozen again on dry ice. The level of intracellular cAMP was determined with a commercially available EIA kit (Biotrak cAMP EIA system, Amersham).

[1] = Increasing effect on bone mass in OVX rats; type: in vivo
Description: 2 k PEG-[Cys^35]-PTH(1-35) was studied for the increasing effect on bone mass in OVX rats as follows. […] These samples were divided into aliquots and stored at −80° C. until use.
Female SD-IGS rats at 7 weeks of age (Charles River Japan, Inc.) were used, 60 of which were ovariectomized (OVX) to remove both ovaries and 7 of which were sham-operated. After 2 weeks, the ovariectomized rats were measured for their body weight and divided into groups of 6 rats each such that the mean body weights of all groups were identical.
Each drug was given subcutaneously at a dose of 1 ml/kg on a 5 times-a-week basis for 4 weeks. On the last day of administration, the rats were housed in metabolic cages and 24-hour urine was collected from each rat. On the following day, after the rats were euthanized by exsanguination under anesthesia, an autopsy was performed to collect blood, lumbar vertebrae and femurs. The urine and blood were taken into tubes and centrifuged to collect the respective supernatants, which were stored at −20° C. until assayed for parameters. The lumbar vertebrae and right femurs were stored in 70% ethanol. The average bone density of the second to fifth lumbar vertebrae and the bone density of the right femur were measured using a dual X-ray bone mineral densitometer (DCS-600EX, ALOKA).

[2] = Hypotensive effect in anesthetized rats; type: in vivo; conditions: sc
Description: The mono-methoxy 5 k PEG-PTH(1-34) prepared in Example 1(2) was also adjusted similarly to 36.5, 18.3 and 9.1 μg/mL (calculated as PTH(1-34)). The samples thus prepared were then stored on ice and restored to room temperature about 30 minutes before administration.
Female SD rats at 10 weeks of age (Charles River Japan, Inc.) were anesthetized by intraperitoneal administration of 50 mg/kg pentobarbital sodium (Abbott Laboratories). A catheter for blood pressure measurement and a catheter for anesthesia maintenance were inserted into the femoral artery and vein, respectively, of each rat. Anesthesia was maintained using a syringe pump (Terumo Corporation) to ensure continuous injection (at 22.5 mg/kg/hour) of pentobarbital sodium (powder form, Tokyo Kasei Kogyo Co., Ltd.) dissolved in physiological saline (Otsuka Pharmaceutical Co., Ltd.). On the other hand, each catheter for blood pressure measurement was filled with 100 U/mL heparin sodium (Novo Nordisk A/S) in physiological saline. To measure systemic blood pressure, a pressure transducer (Nihon Kohden Corporation) was connected to the catheter for blood pressure measurement and signals from the transducer were input to a blood pressure amplifier (Nihon Kohden Corporation). The resulting data were averaged for use as an indicator of systemic blood pressure. The output of systemic blood pressure was, in turn, input to a measuring unit for instantaneous heart rate (Nihon Kohden Corporation) to determine heart rate. These parameters were continuously recorded on a thermal pen recorder (Graphtec Corporation) at a speed of 5 mm/min. After surgery, an injection needle for administration of a test substance was inserted into the dorsal subcutaneous region of each rat. After each parameter had stabilized, test drugs were administered. […] This figure illustrates changes in blood pressure induced by administration of a negative control (buffer), 50 μg/kg hPTH (1-34) and 36.5 μg/kg 5 k PEG-PTH(1-34) in this order from the upper panel. In addition, the average value of blood pressure before PTH administration and the value at the maximum blood pressure drop after administration were measured for each case to determine the difference between these two values. […] The vertical axis represents the maximum blood pressure drop (mmHg) and the horizontal axis represents the amount of PTH administered.

Row | Maximum cAMP response (rat PTH1 receptors) [pmol/well] | EC50 (rat PTH1 receptors; cAMP production) [nM] | Compound | lumbar and femoral bone density, significance (in words) ([1]; OVX rats, 7.5, 30 and 120 nmol/kg sc, 4 weeks) | lumbar and femoral bone density (in words) ([1]; OVX rats, sc 5 times a week for 4 weeks) | hypotensive effect after administration (in words) ([2]; anesthetized female SD rats) | hypotensive effect over doses, maximum blood pressure drop (in words) ([2]; anesthetized rats, hPTH(1-34) 12.5-50 μg/kg, 5 k PEG-PTH(1-34) 9.1-36.5 μg/kg)
1 | 52.2 ± 12.3 | 2.2 | 2 k PEG-[Cys^35]-hPTH(1-35): [Cys^35]-PTH(1-35) conjugated with mPEG 2 k-MAL (2 kDa methoxy-PEG-maleimide) at the C-terminal cysteine (SVSEIQLMHNLGKHLNSMERVEWLRKKLQDVHNFC; Parathyroid hormone 2 kDa mPEG-maleimide at Cys35; UniProt P01270 32-66, looked up, variant V35C) | statistically-significant increases in both lumbar and femoral bone density | dose-dependent increases in lumbar and femoral bone density | – | –
2 | – | – | CC[C@H](C)[C@H](NC(=O)[C@H](CCC(=O)O)NC(=O)[C@H](CO)NC(=O)[C@@H](NC(=O)[C@@H](N)CO)C(C)C)C(=O)N[C@@H](CCC(N)=O)C(=O)N[C@@H](CC(C)C)C(=O)N[C@@H](CCSC)C(=O)N[C@@H](Cc1cnc[nH]1)C(=O)N[C@@H](CC(N)=O)C(=O)N[C@@H](CC(C)C)C(=O)NCC(=O)N[C@@H](CCCCN)C(=O)N[C@@H](Cc1cnc[nH]1)C(=O)N[C@@H](CC(C)C)C(=O)N[C@@H](CC(N)=O)C(=O)N[C@@H](CO)C(=O)N[C@@H](CCSC)C(=O)N[C@@H](CCC(=O)O)C(=O)N[C@@H](CCCN=C(N)N)C(=O)N[C@H](C(=O)N[C@@H](CCC(=O)O)C(=O)N[C@@H](Cc1c[nH]c2ccccc12)C(=O)N[C@@H](CC(C)C)C(=O)N[C@@H](CCCN=C(N)N)C(=O)N[C@@H](CCCCN)C(=O)N[C@@H](CCCCN)C(=O)N[C@@H](CC(C)C)C(=O)N[C@@H](CCC(N)=O)C(=O)N[C@@H](CC(=O)O)C(=O)N[C@H](C(=O)N[C@@H](Cc1cnc[nH]1)C(=O)N[C@@H](CC(N)=O)C(=O)N[C@@H](Cc1ccccc1)C(=O)O)C(C)C)C(C)C [hPTH(1-34), reference compound] | – | – | strong hypotensive effect immediately after administration | dose-dependent hypotensive effect in the range of 12.5 μg/kg to 50 μg/kg
